Measured values as given in PMC12406203 (Journal of Medicinal Chemistry, 2025).
Where “and” joins values, the source holds several entries; their conditions need not be identical. Equal entries are not always repeated.

Experiments:
hAChE [1] = tested on: hAChE
hAChE [2] = target: hAChE (Homo sapiens, UniProt P22303); conditions: for AChE inhibition: at a concentration of 100 μM; for hAChE RA at 100 μM: residual activity at 100 μM, mean ± SD, one experiment in triplicate
MLK1 = target: T1, MLK1 (Homo sapiens, UniProt P80192); assay: KINOMEscan; type: binding
T1 construct: purchased Eurofins DiscoverX, LLC; host or cells: E. coli (BL21-derived, T7 phage) or HEK-293

p38α = target: T2, p38α (Homo sapiens, UniProt Q16539); assay: KINOMEscan; type: binding
T2 construct: purchased Eurofins DiscoverX, LLC; host or cells: E. coli (BL21-derived, T7 phage) or HEK-293

FAK = target: T3, FAK (Homo sapiens, UniProt Q05397); assay: KINOMEscan; type: binding
T3 construct: purchased Eurofins DiscoverX, LLC; host or cells: E. coli (T7 phage) or HEK-293

TGFBR1 = target: T4, TGFBR1 (Homo sapiens, UniProt P36897); assay: KINOMEscan; type: binding
T4 construct: purchased Eurofins DiscoverX, LLC; host or cells: E. coli BL21-derived host (T7 phage) or HEK-293
T4 sequence (P36897 34-503): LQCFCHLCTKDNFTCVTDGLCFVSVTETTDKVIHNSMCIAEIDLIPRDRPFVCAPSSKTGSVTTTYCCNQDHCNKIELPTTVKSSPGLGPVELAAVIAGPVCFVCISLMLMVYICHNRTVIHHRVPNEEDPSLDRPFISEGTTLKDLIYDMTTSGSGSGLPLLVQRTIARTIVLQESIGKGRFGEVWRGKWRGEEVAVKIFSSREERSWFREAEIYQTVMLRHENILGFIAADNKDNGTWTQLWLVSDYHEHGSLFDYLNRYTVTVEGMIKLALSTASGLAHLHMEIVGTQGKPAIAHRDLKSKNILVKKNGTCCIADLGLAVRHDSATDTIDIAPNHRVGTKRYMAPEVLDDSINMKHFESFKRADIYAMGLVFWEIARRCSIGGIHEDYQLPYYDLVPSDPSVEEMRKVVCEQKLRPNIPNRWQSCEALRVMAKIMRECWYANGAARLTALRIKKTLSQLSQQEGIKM

MKNK2 = target: T5, MKNK2 (Homo sapiens, UniProt Q9HBH9); assay: KINOMEscan; type: binding
T5 construct: purchased Eurofins DiscoverX, LLC; host or cells: E. coli (BL21-derived, T7 phage) or HEK-293

panel of 103 kinases = assay: KINOMEscan kinase selectivity profiling (whole panel); type: binding; conditions: 10 and 1 μM
Protocol: The kinase inhibition profile of compounds 94 and 95 was assessed against 103 protein kinases by Eurofins DiscoverX, LLC., using the KINOMEscan assay. Kinase-tagged T7 phage strains were grown in parallel in 24-well blocks in an E. coli host derived from the BL21 strain. E. coli were grown to log-phase and infected with T7 phage from a frozen stock (multiplicity of infection = 0.4) and incubated with shaking at 32 °C until lysis (90–150 min). The lysates were centrifuged (6000g) and filtered (0.2 μm) to remove cell debris. The remaining kinases were produced in HEK-293 cells and subsequently tagged with DNA for qPCR detection. […] The liganded beads were blocked with excess biotin and washed with blocking buffer (SeaBlock (Pierce), 1% BSA, 0.05% Tween 20, 1 mM DTT) to remove unbound ligand and to reduce nonspecific phage binding. […] Test compounds were prepared as 100× stocks in 100% DMSO and directly diluted into the assay. All reactions were performed in polypropylene 384-well plates in a final volume of 0.02 mL. […] The kinase concentration in the eluates was measured by qPCR.
The compound(s) were screened at the concentration(s) requested, and results for primary screen binding interactions are reported as RA (%), where lower numbers indicate stronger hits in the matrix. RA=(testcompoundsignal−PCsignal/NCsignal−PCsignal)×100
Test compound = Cpd. […]

T3 sequence (Q05397 whole entry): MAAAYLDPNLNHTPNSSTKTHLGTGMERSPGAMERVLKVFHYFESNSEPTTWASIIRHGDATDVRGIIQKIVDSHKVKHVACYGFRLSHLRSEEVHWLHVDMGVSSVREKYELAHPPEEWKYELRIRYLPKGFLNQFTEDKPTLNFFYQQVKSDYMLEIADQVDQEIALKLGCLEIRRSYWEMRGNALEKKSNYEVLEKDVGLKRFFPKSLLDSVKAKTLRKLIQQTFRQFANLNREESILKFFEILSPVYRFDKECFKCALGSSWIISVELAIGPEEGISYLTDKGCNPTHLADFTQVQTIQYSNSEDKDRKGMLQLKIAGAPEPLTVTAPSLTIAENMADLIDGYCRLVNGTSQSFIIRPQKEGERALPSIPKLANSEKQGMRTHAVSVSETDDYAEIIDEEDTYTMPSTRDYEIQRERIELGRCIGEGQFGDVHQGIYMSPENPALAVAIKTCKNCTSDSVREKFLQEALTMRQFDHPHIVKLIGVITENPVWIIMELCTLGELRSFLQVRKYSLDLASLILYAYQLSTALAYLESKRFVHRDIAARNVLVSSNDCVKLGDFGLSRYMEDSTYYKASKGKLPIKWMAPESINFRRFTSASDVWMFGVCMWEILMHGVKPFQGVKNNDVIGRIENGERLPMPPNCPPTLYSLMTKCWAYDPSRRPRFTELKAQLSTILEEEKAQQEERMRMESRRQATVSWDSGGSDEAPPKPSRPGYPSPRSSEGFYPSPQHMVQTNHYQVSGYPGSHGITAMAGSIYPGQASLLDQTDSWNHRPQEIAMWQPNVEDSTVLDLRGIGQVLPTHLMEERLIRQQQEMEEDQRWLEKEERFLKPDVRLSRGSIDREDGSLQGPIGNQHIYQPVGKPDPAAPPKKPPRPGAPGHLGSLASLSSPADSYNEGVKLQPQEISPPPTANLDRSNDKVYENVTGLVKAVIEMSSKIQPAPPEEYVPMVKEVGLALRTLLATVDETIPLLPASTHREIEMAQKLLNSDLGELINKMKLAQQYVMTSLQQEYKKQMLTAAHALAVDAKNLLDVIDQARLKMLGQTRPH
T5 sequence (Q9HBH9 whole entry): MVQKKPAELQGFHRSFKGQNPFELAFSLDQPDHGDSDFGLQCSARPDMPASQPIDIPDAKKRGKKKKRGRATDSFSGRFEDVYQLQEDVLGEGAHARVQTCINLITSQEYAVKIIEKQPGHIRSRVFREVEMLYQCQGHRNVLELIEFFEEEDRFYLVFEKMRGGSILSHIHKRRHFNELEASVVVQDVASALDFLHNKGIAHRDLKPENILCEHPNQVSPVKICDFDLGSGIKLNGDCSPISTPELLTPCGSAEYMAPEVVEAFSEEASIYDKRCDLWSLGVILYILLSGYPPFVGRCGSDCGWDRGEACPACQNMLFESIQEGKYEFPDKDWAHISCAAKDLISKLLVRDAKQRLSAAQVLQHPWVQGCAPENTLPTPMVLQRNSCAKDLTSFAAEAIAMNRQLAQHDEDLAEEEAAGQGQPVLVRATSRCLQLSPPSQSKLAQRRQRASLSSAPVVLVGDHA
T1 sequence (P80192 whole entry): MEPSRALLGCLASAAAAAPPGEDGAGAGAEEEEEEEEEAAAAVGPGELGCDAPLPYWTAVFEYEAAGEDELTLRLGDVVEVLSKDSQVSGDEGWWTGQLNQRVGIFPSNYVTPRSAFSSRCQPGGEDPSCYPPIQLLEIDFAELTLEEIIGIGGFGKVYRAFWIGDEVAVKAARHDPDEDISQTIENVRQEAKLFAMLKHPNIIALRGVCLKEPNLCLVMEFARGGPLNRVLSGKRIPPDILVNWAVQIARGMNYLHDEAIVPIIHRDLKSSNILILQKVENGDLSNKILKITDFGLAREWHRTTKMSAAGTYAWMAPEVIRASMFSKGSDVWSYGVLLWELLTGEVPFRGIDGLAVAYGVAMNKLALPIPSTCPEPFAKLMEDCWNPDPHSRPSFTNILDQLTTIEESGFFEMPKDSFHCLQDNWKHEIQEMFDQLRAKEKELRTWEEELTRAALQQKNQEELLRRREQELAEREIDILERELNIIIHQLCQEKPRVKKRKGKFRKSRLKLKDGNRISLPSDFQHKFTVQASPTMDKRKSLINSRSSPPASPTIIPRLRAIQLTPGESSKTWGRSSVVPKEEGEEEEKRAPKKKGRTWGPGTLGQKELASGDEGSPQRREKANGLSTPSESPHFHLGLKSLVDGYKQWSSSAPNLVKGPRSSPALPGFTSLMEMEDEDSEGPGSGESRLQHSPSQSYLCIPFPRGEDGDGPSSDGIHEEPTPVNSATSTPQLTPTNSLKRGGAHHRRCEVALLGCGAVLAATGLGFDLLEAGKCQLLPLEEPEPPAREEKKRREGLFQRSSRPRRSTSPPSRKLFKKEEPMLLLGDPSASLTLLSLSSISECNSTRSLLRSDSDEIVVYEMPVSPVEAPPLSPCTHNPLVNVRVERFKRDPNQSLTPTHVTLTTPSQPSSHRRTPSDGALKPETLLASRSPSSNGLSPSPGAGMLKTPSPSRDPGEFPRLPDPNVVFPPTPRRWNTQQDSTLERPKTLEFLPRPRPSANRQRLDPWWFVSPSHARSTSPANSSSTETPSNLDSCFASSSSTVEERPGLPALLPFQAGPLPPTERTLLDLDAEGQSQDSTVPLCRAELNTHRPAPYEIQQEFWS
T2 sequence (Q16539 whole entry): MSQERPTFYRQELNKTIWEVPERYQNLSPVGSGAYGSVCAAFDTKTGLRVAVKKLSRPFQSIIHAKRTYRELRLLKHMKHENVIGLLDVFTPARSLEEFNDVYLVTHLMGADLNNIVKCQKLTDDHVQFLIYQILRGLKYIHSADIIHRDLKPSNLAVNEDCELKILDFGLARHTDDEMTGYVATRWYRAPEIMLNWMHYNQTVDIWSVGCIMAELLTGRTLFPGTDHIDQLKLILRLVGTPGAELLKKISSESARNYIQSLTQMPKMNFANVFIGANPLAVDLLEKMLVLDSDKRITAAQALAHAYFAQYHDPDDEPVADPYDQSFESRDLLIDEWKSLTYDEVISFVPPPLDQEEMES
Chain of hAChE (Homo sapiens, UniProt P22303) (P22303 32-614): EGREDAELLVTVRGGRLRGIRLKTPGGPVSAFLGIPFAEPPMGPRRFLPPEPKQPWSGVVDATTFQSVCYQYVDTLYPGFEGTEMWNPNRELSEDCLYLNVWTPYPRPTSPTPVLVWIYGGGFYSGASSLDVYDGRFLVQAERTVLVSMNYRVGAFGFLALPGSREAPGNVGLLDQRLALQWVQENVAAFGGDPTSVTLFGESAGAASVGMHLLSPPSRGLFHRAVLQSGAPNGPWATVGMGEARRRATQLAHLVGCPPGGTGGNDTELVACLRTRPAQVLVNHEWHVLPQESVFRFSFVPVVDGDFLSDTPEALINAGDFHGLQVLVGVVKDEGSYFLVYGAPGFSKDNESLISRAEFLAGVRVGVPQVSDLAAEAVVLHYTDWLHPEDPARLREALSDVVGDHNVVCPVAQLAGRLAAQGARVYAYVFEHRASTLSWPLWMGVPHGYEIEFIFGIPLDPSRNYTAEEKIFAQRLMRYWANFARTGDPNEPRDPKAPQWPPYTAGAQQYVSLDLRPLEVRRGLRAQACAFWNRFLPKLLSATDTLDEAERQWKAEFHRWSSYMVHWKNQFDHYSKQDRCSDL

CN(C)CCNC(=O)c1cc2c(cnn2CC2CCCCC2)cc1Cc1ccc(F)cc1F [Compound 95, 1-(Cyclohexylmethyl)-5-(2,4-difluorobenzyl)-N-(2-(dimethylamino)ethyl)-1H-indazole-6-carboxamide]
RA @ 1000nM (ROCK2): 83% | RA @ 10000nM (ROCK2): 100% | RA @ 1000nM (RET): 100% | RA @ 10000nM (RET): 100% | RA at 100 µM (hAChE [1]): 53 ± 1% | RA @ 1000nM (PAK4): 100% | RA @ 10000nM (PAK4): 88% | RA @ 1000nM (LCK): 94% | RA @ 10000nM (LCK): 100% | AChE inhibition (hAChE [2]): did not inhibit AChE | hAChE RA at 100 μM (hAChE [2]): 53.4% and 53 ± 1% and 53.4 ± 0.8% | RA @ 1000nM (CDK11): 92% | RA @ 10000nM (CDK11): 100% | RA @ 1000nM (MKNK1): 100% | RA @ 10000nM (MKNK1): 100% | RA @ 1000nM (PAK1): 100% | RA @ 10000nM (PAK1): 93% | RA @ 1000nM (TIE2): 90% | RA @ 10000nM (TIE2): 100% | RA @ 1000nM (JNK2): 44% | RA @ 10000nM (JNK2): 3.8% | RA @ 1000nM (MLK1): 100% | RA @ 10000nM (MLK1): 90% | RA @ 1000nM (p38α): 6.7% | RA @ 10000nM (p38α): 0.1% | RA @ 1000nM (FAK): 92% | RA @ 10000nM (FAK): 94% | RA @ 1000nM (TGFBR1): 100% | RA @ 10000nM (TGFBR1): 100% | RA @ 1000nM (MKNK2): 81% | RA @ 10000nM (MKNK2): 67% | IC50 (hBChE): 772 nM and 350 ng/mL | RA @ 1000nM (BRAF(V600E)): 98% | RA @ 10000nM (BRAF(V600E)): 100% | kinase selectivity (panel of 103 kinases): high selectivity for p38α MAPK | RA @ 1000nM (p38β): 84% | RA @ 10000nM (p38β): 18% | RA @ 1000nM (PIM1): 100% | RA @ 10000nM (PIM1): 94% | RA @ 1000nM (AKT2): 100% | RA @ 10000nM (AKT2): 88%

CC(C)Cn1ncc2cc(Cc3ccc(F)cc3F)c(C(=O)NCCN(C)C)cc21 [Compound 94, 5-(2,4-Difluorobenzyl)-N-(2-(dimethylamino)ethyl)-1-isobutyl-1H-indazole-6-carboxamide]
RA @ 1000nM (ROCK2): 87% | RA @ 10000nM (ROCK2): 96% | RA @ 1000nM (RET): 100% | RA @ 10000nM (RET): 100% | RA at 100 µM (hAChE [1]): 69 ± 4% | RA @ 1000nM (PAK4): 97% | RA @ 10000nM (PAK4): 96% | RA @ 1000nM (LCK): 100% | RA @ 10000nM (LCK): 97% | AChE inhibition (hAChE [2]): did not inhibit AChE | hAChE RA at 100 μM (hAChE [2]): 69.0% and 69 ± 4% | RA @ 1000nM (CDK11): 100% | RA @ 10000nM (CDK11): 89% | RA @ 1000nM (MKNK1): 100% | RA @ 10000nM (MKNK1): 100% | RA @ 1000nM (PAK1): 96% | RA @ 10000nM (PAK1): 94% | RA @ 1000nM (TIE2): 100% | RA @ 10000nM (TIE2): 100% | RA @ 1000nM (JNK2): 52% | RA @ 10000nM (JNK2): 8.3% | RA @ 1000nM (MLK1): 100% | RA @ 10000nM (MLK1): 100% | RA @ 1000nM (p38α): 2.3% | RA @ 10000nM (p38α): 0.4% | RA @ 1000nM (FAK): 96% | RA @ 10000nM (FAK): 89% | RA @ 1000nM (TGFBR1): 100% | RA @ 10000nM (TGFBR1): 100% | RA @ 1000nM (MKNK2): 76% | RA @ 10000nM (MKNK2): 80% | IC50 (hBChE): 652 nM and 270 ng/mL | RA @ 1000nM (BRAF(V600E)): 100% | RA @ 10000nM (BRAF(V600E)): 100% | kinase selectivity (panel of 103 kinases): high selectivity for p38α MAPK | RA @ 1000nM (p38β): 72% | RA @ 10000nM (p38β): 15% | RA @ 1000nM (PIM1): 95% | RA @ 10000nM (PIM1): 100% | RA @ 1000nM (AKT2): 89% | RA @ 10000nM (AKT2): 76%
